In ChEMBL document CHEMBL6134823, “Combination therapy and dual-target inhibitors based on cyclin-dependent kinases (CDKs): Emerging strategies for cancer therapy” (Eur J Med Chem, 2025):
Values belong to the compound of their own block, whether it stands above or below them.

How the values were obtained:
[1] = molecular target: Receptor-type tyrosine-protein kinase FLT3 (Homo sapiens, UniProt P36888); test: Inhibition human recombinant FLT3
[2] = molecular target: T1, Cyclin-dependent kinase 4 (Homo sapiens, UniProt P11802); test: Inhibition of human CDK4 extracted from baculovirus infected Sf9 insect cells incubated for 1 hrs in presence of ATP by liquid scintillation counter analysis
[3] = molecular target: T2, Epidermal growth factor receptor (Homo sapiens, UniProt P00533); test: Inhibition of EGFR (unknown origin) using Poly (Glu, Tyr) as substrate incubated for 60 mins in presence of ATP by Kinase-Glo Plus luminescence kinase assay relative to control
MCF7 [4] = test: Cytotoxicity against human MCF7 cells assessed as reduction in cell growth incubated for 72 hrs by MTT assay; type: functional, cell-based; settings: MCF7, 72 h
MDA-MB-231 [5] = test: Cytotoxicity against human MDA-MB-231 cells assessed as reduction in cell growth incubated for 72 hrs by MTT assay; type: functional, cell-based; settings: MDA-MB-231, 72 h
HepG2 = test: Cytotoxicity against human HepG2 cells assessed as reduction in cell growth incubated fro 72 hrs by MTT assay; type: functional, cell-based; settings: HepG2, 72 h
[6] = molecular target: T3, Cyclin-dependent kinase 2 (Homo sapiens, UniProt P24941)
[7] = molecular target: T1, Cyclin-dependent kinase 4; test: Inhibition of CDK4 (unknown origin) at 1 uM relative to control
A549 [8] = test: Cytotoxicity against human A549 cells assessed as reduction in cell growth incubated fro 72 hrs by MTT assay; type: functional, cell-based; settings: A549, 72 h
MCF7 [9] = test: Cytotoxicity against human MCF7 cells assessed as reduction in cell growth incubated fro 72 hrs by MTT assay; type: functional, cell-based; settings: MCF7, 72 h
HCT-116 = test: Cytotoxicity against human HCT-116 cells assessed as reduction in cell growth incubated fro 72 hrs by MTT assay; type: functional, cell-based; settings: HCT-116, 72 h
Histone deacetylase 2 = Histone deacetylase 2 (Homo sapiens, UniProt Q92769)
Description: Inhibition of HDAC2 (unknown origin)

[10] = molecular target: Extracellular calcium-sensing receptor (Homo sapiens, UniProt P41180); test: Inhibition of CASR (unknown origin)
[11] = molecular target: T4, Cyclin-dependent kinase 9 (Homo sapiens, UniProt P50750); test: Inhibition of CDK9 (unknown origin)
[12] = molecular target: T2, Epidermal growth factor receptor
[13] = molecular target: T3, Cyclin-dependent kinase 2; remark: listed apart in the source
Description: Inhibition of CDK2 (unknown origin) by mobility shift assay

MDA-MB-231 [14] = test: Cytotoxicity against human MDA-MB-231 cells; type: functional, cell-based
OVCAR-5 = test: Antiproliferative activity against human OVCAR-5 cells assessed as growth inhibition incubated for 48 hrs by SRB assay; type: functional, cell-based; settings: OVCAR-5, 48 h
SUM-159-PT = test: Cytotoxicity against human SUM159 cells; type: functional, cell-based
SK-OV-3 [15] = test: Cytotoxicity against human SK-OV-3 cells assessed as inhibition of cell growth incubated for 72 hrs by MTT assay; type: functional, cell-based; settings: SK-OV-3, 72 h
K562 = test: Growth inhibition of human K562 cells incubated for 72 hrs by SRB assay; type: functional
MCF7 [16] = test: Growth inhibition of human MCF-7 cells incubated for 72 hrs by SRB assay; type: functional
[17] = molecular target: T4, Cyclin-dependent kinase 9
Description: Inhibition of CDK9 (unknown origin) by ADP-Glo kinase assay

[18] = molecular target: Cyclin-dependent kinase 7 (Homo sapiens, UniProt P50613); test: Inhibition of CDK7 (unknown origin)
Histone deacetylase 1 = Histone deacetylase 1 (Homo sapiens, UniProt Q13547)
Description: Inhibition of HDAC1 (unknown origin)

[19] = molecular target: T5, Poly [ADP-ribose] polymerase 1 (Homo sapiens, UniProt P09874); test: Inhibition of PARP-1 (unknown origin) incubated for 60 mins by chemiluminescent assay
[20] = molecular target: Amine oxidase [flavin-containing] A (Homo sapiens, UniProt P21397); test: Inhibition of MAO-A (unknown origin) measured by MAO-GloTM method
[21] = molecular target: Receptor tyrosine-protein kinase erbB-2 (Homo sapiens) (UniProt P04626); test: Inhibition of HER2 (unknown origin) at 10 uM in presence of ATP relative to control
[22] = molecular target: Cyclin-dependent kinase 1/cyclin B1 (Homo sapiens) (UniProt P06493+P14635); test: Inhibition of CDK1/cyclin B1 (unknown origin) at 10 nM relative to control; type: protein-complex assay
BT-549 = test: Cytotoxicity against human BT-549 cells assessed as cell growth inhibition; type: functional, cell-based
[23] = molecular target: T5, Poly [ADP-ribose] polymerase 1; test: Inhibition of PARP1 (unknown origin)
MDA-MB-468 = test: Cytotoxicity against human MDA-MB-468 cells assessed as cell growth inhibition; type: functional, cell-based
MDA-MB-231 [24] = test: Cytotoxicity against human MDA-MB-231 cells assessed as cell growth inhibition; type: functional, cell-based
[25] = molecular target: Cyclin-dependent kinase 6 (Homo sapiens, UniProt Q00534)
Description: Inhibition of CDK6 (unknown origin))

HeLa = test: Antiproliferative activity against human HeLa cells; type: functional, cell-based
[26] = Antiproliferative activity against human PC-3 cells; type: functional, cell-based
A549 [27] = test: Antiproliferative activity against human A549 cells; type: functional, cell-based
SK-OV-3 [28] = test: Antiproliferative activity against human SK-OV-3 cells; type: functional, cell-based
MCF7 [29] = test: Antiproliferative activity against human MCF7 cells assessed as reduction in cell viability incubated for 24 hrs by MTT assay; type: functional, cell-based; settings: MCF7, 24 h
PANC-1 = test: Antiproliferative activity against human PANC-1 cells assessed as reduction in cell viability incubated for 24 hrs by MTT assay; type: functional, cell-based; settings: PANC-1, 24 h
HT-29 = test: Antiproliferative activity against human HT-29 cells assessed as reduction in cell viability incubated for 24 hrs by MTT assay; type: functional, cell-based; settings: HT-29, 24 h
A549 [30] = test: Antiproliferative activity against human A549 cells assessed as reduction in cell viability incubated for 24 hrs by MTT assay; type: functional, cell-based; settings: A549, 24 h
[31] = molecular target: T3, Cyclin-dependent kinase 2; test: Inhibition of CDK2 (unknown origin) by luminescence kinase assay
Aurora kinase A = Aurora kinase A (Homo sapiens, UniProt O14965); test: Inhibition of Aurora A (unknown origin)
[32] = molecular target: Cyclin-dependent kinase 5 (Homo sapiens, UniProt Q00535)
Chain of Cyclin-dependent kinase 5 (Q00535 whole entry): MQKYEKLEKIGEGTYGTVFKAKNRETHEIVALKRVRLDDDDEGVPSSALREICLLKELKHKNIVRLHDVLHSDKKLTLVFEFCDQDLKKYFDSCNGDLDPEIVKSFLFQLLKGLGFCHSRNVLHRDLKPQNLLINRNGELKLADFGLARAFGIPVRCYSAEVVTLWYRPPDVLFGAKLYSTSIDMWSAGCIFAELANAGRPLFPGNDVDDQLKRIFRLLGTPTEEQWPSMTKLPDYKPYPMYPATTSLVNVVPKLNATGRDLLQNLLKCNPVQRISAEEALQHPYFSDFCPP
Description: Inhibition of CDK5 (unknown origin)

T4 sequence (P50750 whole entry): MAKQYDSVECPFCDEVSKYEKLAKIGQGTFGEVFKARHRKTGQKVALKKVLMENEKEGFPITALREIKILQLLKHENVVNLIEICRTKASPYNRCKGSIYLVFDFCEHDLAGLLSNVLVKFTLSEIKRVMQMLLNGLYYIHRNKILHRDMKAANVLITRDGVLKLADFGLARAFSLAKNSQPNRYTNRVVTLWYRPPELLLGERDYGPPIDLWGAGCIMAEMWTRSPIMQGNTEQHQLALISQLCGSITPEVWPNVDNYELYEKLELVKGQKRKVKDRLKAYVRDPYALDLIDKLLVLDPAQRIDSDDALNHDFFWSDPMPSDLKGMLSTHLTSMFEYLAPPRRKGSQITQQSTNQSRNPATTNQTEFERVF
T2 sequence (P00533 whole entry): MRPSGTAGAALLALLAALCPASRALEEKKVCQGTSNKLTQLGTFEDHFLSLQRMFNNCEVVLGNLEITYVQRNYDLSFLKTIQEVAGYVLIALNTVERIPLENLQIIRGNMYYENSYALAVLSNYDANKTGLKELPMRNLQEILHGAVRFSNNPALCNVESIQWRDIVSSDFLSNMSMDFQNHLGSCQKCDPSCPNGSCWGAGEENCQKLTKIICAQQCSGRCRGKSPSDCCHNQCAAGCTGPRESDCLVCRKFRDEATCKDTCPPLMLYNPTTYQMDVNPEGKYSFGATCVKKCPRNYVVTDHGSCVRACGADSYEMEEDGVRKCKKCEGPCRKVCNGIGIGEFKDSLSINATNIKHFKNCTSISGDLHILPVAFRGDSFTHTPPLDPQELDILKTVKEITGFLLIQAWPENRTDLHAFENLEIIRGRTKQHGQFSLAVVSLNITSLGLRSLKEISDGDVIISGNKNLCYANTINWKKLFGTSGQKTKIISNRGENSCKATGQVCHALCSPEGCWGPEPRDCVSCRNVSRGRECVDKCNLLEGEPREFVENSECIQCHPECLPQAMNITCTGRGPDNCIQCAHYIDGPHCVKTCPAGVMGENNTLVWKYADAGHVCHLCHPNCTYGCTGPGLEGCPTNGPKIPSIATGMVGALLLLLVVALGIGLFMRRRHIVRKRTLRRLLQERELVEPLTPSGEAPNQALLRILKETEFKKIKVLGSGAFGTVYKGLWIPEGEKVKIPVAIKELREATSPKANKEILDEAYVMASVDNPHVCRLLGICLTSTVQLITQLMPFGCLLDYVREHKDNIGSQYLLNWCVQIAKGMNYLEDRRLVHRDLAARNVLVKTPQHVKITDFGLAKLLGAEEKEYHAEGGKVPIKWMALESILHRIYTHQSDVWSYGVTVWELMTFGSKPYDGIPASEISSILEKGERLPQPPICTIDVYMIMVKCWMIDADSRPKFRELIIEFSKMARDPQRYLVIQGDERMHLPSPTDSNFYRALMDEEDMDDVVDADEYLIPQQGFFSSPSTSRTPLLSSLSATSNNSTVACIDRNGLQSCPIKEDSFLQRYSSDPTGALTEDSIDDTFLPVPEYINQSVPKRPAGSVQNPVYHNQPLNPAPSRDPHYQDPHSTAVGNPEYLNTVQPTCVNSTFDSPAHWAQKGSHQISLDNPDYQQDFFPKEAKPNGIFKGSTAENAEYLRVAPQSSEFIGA
T1 sequence (P11802 whole entry): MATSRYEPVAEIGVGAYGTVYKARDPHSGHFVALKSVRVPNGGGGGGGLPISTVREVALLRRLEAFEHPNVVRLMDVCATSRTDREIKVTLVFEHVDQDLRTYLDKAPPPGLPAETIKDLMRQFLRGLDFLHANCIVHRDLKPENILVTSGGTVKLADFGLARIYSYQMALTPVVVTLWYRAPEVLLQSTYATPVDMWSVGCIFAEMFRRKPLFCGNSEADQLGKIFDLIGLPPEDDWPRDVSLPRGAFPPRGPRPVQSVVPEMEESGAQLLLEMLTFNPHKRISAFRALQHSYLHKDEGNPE
T5 sequence (P09874 whole entry): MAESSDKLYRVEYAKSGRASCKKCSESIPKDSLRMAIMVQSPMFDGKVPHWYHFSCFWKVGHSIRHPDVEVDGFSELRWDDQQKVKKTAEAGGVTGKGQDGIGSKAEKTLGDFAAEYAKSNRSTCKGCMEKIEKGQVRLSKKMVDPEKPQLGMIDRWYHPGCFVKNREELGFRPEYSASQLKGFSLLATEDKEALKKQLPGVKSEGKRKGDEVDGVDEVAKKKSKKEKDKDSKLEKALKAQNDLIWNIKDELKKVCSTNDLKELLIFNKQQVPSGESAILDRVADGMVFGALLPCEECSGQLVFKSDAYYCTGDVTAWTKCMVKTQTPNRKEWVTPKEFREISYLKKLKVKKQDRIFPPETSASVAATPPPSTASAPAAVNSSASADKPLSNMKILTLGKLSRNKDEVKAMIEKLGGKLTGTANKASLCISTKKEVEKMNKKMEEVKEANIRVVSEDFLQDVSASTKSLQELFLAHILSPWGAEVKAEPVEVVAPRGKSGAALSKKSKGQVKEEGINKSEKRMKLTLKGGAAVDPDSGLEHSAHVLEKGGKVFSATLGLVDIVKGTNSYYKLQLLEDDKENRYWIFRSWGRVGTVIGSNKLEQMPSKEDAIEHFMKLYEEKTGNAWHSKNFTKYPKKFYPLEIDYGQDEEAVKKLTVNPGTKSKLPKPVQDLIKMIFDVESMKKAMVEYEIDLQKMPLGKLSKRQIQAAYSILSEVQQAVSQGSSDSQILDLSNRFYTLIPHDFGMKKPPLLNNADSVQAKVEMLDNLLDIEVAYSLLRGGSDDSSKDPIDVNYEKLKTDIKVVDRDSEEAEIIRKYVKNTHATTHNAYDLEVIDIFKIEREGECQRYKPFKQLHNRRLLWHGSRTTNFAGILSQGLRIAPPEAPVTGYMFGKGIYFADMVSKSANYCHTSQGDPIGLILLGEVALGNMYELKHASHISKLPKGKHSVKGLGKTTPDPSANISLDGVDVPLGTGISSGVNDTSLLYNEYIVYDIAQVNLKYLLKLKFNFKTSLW
Chain of Receptor-type tyrosine-protein kinase FLT3 (P36888 whole entry): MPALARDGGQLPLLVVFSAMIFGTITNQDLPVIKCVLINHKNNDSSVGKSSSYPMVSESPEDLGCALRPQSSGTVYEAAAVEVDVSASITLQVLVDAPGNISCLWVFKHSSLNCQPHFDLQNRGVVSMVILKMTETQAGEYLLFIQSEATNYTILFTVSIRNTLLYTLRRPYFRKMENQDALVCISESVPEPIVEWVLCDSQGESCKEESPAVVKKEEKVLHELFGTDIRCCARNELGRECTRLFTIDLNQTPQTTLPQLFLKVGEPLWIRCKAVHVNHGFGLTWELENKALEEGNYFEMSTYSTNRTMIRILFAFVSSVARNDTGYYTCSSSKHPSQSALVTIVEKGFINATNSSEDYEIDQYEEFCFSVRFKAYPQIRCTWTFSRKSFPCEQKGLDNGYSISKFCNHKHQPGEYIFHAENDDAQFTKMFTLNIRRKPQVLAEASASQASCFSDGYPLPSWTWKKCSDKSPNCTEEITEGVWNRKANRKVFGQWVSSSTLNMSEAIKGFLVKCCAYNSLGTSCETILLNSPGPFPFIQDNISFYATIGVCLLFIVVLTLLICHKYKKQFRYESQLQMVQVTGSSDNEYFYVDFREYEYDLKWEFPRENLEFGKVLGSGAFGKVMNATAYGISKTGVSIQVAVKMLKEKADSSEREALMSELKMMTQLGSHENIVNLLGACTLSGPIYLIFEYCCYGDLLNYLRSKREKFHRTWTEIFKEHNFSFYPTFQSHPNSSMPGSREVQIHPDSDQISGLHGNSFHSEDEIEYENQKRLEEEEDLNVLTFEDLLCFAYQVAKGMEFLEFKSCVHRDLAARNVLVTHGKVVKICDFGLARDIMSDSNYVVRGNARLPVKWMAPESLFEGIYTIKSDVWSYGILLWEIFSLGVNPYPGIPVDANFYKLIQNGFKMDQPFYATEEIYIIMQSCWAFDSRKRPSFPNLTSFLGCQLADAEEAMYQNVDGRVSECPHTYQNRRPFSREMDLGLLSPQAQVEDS
Chain of Cyclin-dependent kinase 7 (P50613 whole entry): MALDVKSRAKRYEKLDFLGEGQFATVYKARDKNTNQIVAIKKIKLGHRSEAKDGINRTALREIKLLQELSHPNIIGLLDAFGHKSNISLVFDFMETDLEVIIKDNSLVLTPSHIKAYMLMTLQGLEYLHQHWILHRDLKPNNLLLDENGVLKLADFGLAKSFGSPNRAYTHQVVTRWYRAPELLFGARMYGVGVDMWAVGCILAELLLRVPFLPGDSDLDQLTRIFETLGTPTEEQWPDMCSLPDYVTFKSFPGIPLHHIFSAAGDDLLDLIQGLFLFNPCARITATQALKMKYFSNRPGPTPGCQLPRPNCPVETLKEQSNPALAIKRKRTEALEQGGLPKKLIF
Chain of Histone deacetylase 1 (Q13547 whole entry): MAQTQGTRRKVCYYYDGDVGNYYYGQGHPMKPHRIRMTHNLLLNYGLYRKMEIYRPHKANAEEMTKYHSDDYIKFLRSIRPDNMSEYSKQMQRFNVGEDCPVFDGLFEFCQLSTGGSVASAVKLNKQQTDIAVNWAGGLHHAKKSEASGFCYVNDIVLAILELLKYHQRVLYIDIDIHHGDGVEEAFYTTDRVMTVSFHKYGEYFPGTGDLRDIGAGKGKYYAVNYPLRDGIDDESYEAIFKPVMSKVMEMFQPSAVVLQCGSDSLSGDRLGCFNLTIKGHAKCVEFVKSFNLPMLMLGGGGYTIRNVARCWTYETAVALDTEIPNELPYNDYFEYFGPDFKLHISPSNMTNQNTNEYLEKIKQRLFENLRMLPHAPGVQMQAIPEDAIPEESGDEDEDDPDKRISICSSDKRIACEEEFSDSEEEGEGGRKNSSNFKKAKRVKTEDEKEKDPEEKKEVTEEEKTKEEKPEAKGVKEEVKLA

Compound: CCN1CCN(c2ccc(Nc3ncc(F)c(-c4cnc5cnn(C(C)C)c5c4)n3)cc2F)CC1
IC50 [1]: 0.011 µM | IC50 [2]: 0.007 µM

Compound: O=C(c1ccc2ccccc2c1)c1cn(-c2ccccc2)nc1C1=Nn2cnnc2SC1
IC50 [3]: 0.0647 µM

Compound: O=C(CC(=O)Nc1cccc(C(=O)Nc2cccc(Nc3ncc(Cl)c(-c4c[nH]c5ccccc45)n3)c2)c1)NO
IC50 (MCF7 [4]): 18.1 µM | IC50 (MDA-MB-231 [5]): 23 µM

Compound: N[C@H]1CCN(c2c3cc(-c4ccnc(NC(=O)C5CC5)c4)ccc3nc3c2[nH]c2ccccc23)C1
IC50 (HepG2): 1.95 µM | IC50 [6]: 0.145 µM | inhibition [7]: 41.1% | IC50 (A549 [8]): 0.949 µM | IC50 (MCF7 [9]): 1.12 µM | IC50 (HCT-116): 0.821 µM

Compound: Nc1ccc(F)cc1NC(=O)c1ccc(CNC(=O)/C=C/c2cccnc2)cc1
IC50 (Histone deacetylase 2): 0.093 µM

Compound: C[C@@H](NCCCc1cccc(C(F)(F)F)c1)c1cccc2ccccc12
IC50 [10]: 2.8 µM

Compound: O=C1Nc2ccccc2/C1=C1/Nc2ccccc2C1=O [INDIRUBIN]
IC50 [13]: 0.003 µM

Compound: O=C(Nc1ccc2[nH]ncc2c1)c1cccc(Cl)c1Cl
IC50 [20]: > 10 µM

Compound: CCOc1ccc(C2C(C#N)=C(N)OC3C2C(C)=NN3c2ccc(Cl)cc2)cc1 (centres undefined)
IC50 [11]: 1.26 nM | IC50 [12]: 0.00021 µM

Compound: O=C(Nc1ccc2c(ccn2C(=O)c2cccc(F)c2)c1)c1ccnnc1
inhibition [21]: 52% | inhibition [22]: 51%

Compound: Cc1cc(C)cc(NNC(=O)[C@H]2CCCN2C(=O)Nc2ccc(Cl)cc2)c1
IC50 [6]: 0.015 µM | IC50 [12]: 0.096 µM

Compound: CN(C)C/C=C/C(=O)Nc1cccc(C(=O)Nc2cccc(Nc3ncc(Cl)c(-c4c[nH]c5ccccc45)n3)c2)c1
IC50 [18]: 0.019 µM

Compound: Cc1n[nH]c2c1C(c1ccc(F)cc1)C(C#N)=C(N)O2 (centres undefined)
IC50 (HeLa): 1.9 µM | IC50 [26]: 2.8 µM | IC50 (A549 [27]): 1.8 µM | IC50 (SK-OV-3 [28]): 2.03 µM

Compound: Cc1ccc(NNC(=O)[C@H]2CCCN2C(=O)Nc2ccc(C(F)(F)F)cc2)cc1
IC50 (MCF7 [29]): 3.7 µM | IC50 (PANC-1): 4.1 µM | IC50 (HT-29): 4.2 µM | IC50 (A549 [30]): 3.9 µM

Compound: O=C(c1ccc2ccccc2c1)c1cn(-c2ccccc2)nc1C1=Nn2c(S)nnc2SC1
IC50 [3]: 0.165 µM | IC50 [31]: 0.0896 µM

Second part, led by results:

IC50 [11]: 0.077 nM | IC50 [12]: 0.00012 µM
Compound: CCOc1ccc(/C=C2/C(=O)N(c3ccc(Cl)cc3)N=C2C)cc1

IC50 [6]: 3.91 µM | inhibition [7]: 5.31%
Compound: O=C(Nc1cc(-c2ccc3nc4c([nH]c5ccccc54)c(N4CCOCC4)c3c2)ccn1)C1CC1

IC50 (OVCAR-5): 0.758 µM
Compound: Cc1nc2c(F)cc(-c3nc(Nc4ccc(N5CCN(C(=O)c6cc(Cc7n[nH]c(=O)c8ccccc78)ccc6F)CC5)cn4)ncc3F)cc2n1C(C)C
IC50 (MDA-MB-231 [14]): 3.61 µM | IC50 (SUM-159-PT): 0.435 µM | IC50 (SK-OV-3 [15]): 0.548 µM

IC50 [6]: > 1000 µM | GI50 (K562): 17 µM | GI50 (MCF7 [16]): 21.4 µM
Compound: CCCCCCCNc1nc(NCc2ccccc2)c2n[nH]c(C(C)C)c2n1

IC50 [17]: 0.00051 µM
Compound: COC[C@@H](C)N[C@H]1CC[C@H](Nc2cc(-c3cccc(NCC4(C#N)CCOCC4)n3)c(Cl)cn2)CC1

IC50 [18]: 0.893 µM | IC50 (Histone deacetylase 1): 0.248 µM
Compound: O=C(CCCCCCC(=O)Nc1cccc(C(=O)Nc2cccc(Nc3ncc(Cl)c(-c4c[nH]c5ccccc45)n3)c2)c1)NO

IC50 [6]: 0.023 µM | IC50 [12]: 0.087 µM
Compound: Cc1cc(C)cc(NNC(=O)[C@H]2CCCN2C(=O)Nc2ccc(C(F)(F)F)cc2)c1

IC50 [19]: 0.00137 µM
Compound: Cc1nnc2n1N=C(c1ccccc1OCC(=O)NCCCNC(=O)COc1ccccc1C1=Nn3c(C)nnc3SC1)CS2

IC50 [1]: 0.008 µM | IC50 [2]: 0.01 µM
Compound: CCN1CCN(c2ccc(Nc3ncc(F)c(-c4cnc5cnn(C(C)C)c5c4)n3)cc2)CC1

IC50 [23]: 0.041 µM | IC50 [25]: 0.127 µM
Compound: Cc1cc(=O)n(C2CCCC2)c2nc(NCCC3CCN(C(=O)c4cc(Cc5n[nH]c(=O)c6ccccc56)ccc4F)CC3)ncc12
IC50 (BT-549): 2.37 µM | IC50 (MDA-MB-468): 2.81 µM | IC50 (MDA-MB-231 [24]): 1.96 µM

IC50 [6]: 0.07 µM | IC50 (Aurora kinase A): 0.4 µM | IC50 [32]: 0.26 µM
Compound: CC[C@H](CO)Nc1nc(NCc2ccccc2N)c2[nH]nc(C(C)C)c2n1
